According to PubChem BioAssay AID330 (DTP/NCI, 2004):
Where “and” joins values, the source holds several entries; their conditions need not be identical. Equal entries are not always repeated. Inconclusive results and toxic doses are left out.

Tested on: P388 leukemia ip, CD2F1 mice, survival T/C
Assay: NCI In Vivo Anticancer Drug Screen. Data for tumor model P388 Leukemia (intraperitoneal) in CD2F1 (CDF1) mice
Details: endpoint: median survival time, higher = longer survival
Outline: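 Mice carrying the transplanted tumor received test compound or vehicle. Survival was recorded in each group, and the value is the treated-group measurement divided by that of the vehicle-treated control group.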

[1] = dose: 60.0 mg/kg/injection, schedule: Q01DX005 (ip), vehicle: saline with Tween-80
[2] = dose: 120.0 mg/kg/injection, schedule: Q01DX005 (ip), vehicle: saline with Tween-80
[3] = dose: 240.0 mg/kg/injection, schedule: Q01DX005 (ip), vehicle: saline with Tween-80
[4] = dose: 50.0 mg/kg/injection, schedule: Q01DX009 (ip), vehicle: Klucel (hydroxypropylcellulose) (HPC)
[5] = dose: 50.0 mg/kg/injection, schedule: Q01DX005 (ip), vehicle: saline with Tween-80
[6] = dose: 100.0 mg/kg/injection, schedule: Q01DX005 (ip), vehicle: saline with Tween-80
[7] = dose: 200.0 mg/kg/injection, schedule: Q01DX005 (ip), vehicle: saline with Tween-80
[8] = dose: 50.0 mg/kg/injection, schedule: Q01DX005 (ip), vehicle: saline
[9] = dose: 100.0 mg/kg/injection, schedule: Q01DX005 (ip), vehicle: saline
[10] = dose: 200.0 mg/kg/injection, schedule: Q01DX005 (ip), vehicle: saline

`CSc1nc(NC2OC(CO)C(O)C(O)C2O)c(C=O)c(=O)n1C` (stereo unspecified) was tested, and the T/C [1] was 100 % of control, the T/C [2] was 92 % of control and the T/C [3] was 91 % of control.

For `CCOc1ccccc1C(=O)Nc1ccc(Br)cc1`, the T/C [4] was 100 % of control, the T/C (dose: 100.0 mg/kg/injection, schedule: Q01DX009 (ip), vehicle: Klucel (hydroxypropylcellulose) (HPC)) was 99 % of control and the T/C (dose: 100.0 mg/kg/injection, schedule: Q01DX009 (ip), vehicle: saline with Tween-80) was 112 % of control. The T/C (dose: 100.0 mg/kg/injection, schedule: Q04DX003 (ip), vehicle: saline with Tween-80) was 100 % of control, the T/C (dose: 200.0 mg/kg/injection, schedule: Q01DX009 (ip), vehicle: Klucel (hydroxypropylcellulose) (HPC)) was 106 % of control and the T/C (dose: 200.0 mg/kg/injection, schedule: Q01DX009 (ip), vehicle: saline with Tween-80) was 104 % of control. For the same molecule, the T/C (dose: 200.0 mg/kg/injection, schedule: Q04DX003 (ip), vehicle: saline with Tween-80) was 100 % of control, the T/C (dose: 400.0 mg/kg/injection, schedule: Q01DX009 (ip), vehicle: Klucel (hydroxypropylcellulose) (HPC)) was 97 % of control and the T/C (dose: 400.0 mg/kg/injection, schedule: Q01DX009 (ip), vehicle: saline with Tween-80) was 91 % of control. For the same molecule, the T/C (dose: 400.0 mg/kg/injection, schedule: Q04DX003 (ip), vehicle: saline with Tween-80) was 95 % of control.

In the case of `CCOC(=O)c1c(Cl)c(CC)c(Cl)n2c1nc1ccccc12`, the T/C [1] is reported as 97 % of control, the T/C [2] is reported as 93 % of control and the T/C [3] is reported as 101 % of control.

In the case of `CCCCCCCCCCNCCSSCc1ccccc1`, the T/C (dose: 12.5 mg/kg/injection, schedule: Q04DX002 (ip), vehicle: Klucel (hydroxypropylcellulose) (HPC)) is reported as 100 % of control, the T/C (dose: 25.0 mg/kg/injection, schedule: Q04DX002 (ip), vehicle: Klucel (hydroxypropylcellulose) (HPC)) is reported as 100 % of control and the T/C (dose: 50.0 mg/kg/injection, schedule: Q04DX002 (ip), vehicle: Klucel (hydroxypropylcellulose) (HPC)) is reported as 109 % of control. The T/C (dose: 100.0 mg/kg/injection, schedule: Q04DX002 (ip), vehicle: Klucel (hydroxypropylcellulose) (HPC)) was 105 % of control.

In the case of `N=C(N)SCc1ccc([N+](=O)[O-])cc1`, the T/C (dose: 25.0 mg/kg/injection, schedule: Q01DX009 (ip), vehicle: Klucel (hydroxypropylcellulose) (HPC)) is reported as 102 % of control and the T/C [4] is reported as 107 % of control.

In the case of `COc1ccc2c(c1OC)CC(C(=O)O)=C2C`, the T/C [5] is reported as 99 % of control, the T/C [6] is reported as 94 % of control and the T/C [7] is reported as 99 % of control.

In the case of `CC(C)=CCC1=C(O)c2ccccc2C(=O)C1=O`, the T/C (dose: 75.0 mg/kg/injection, schedule: Q01DX010 (ip), vehicle: other) is reported as 120 % of control, the T/C (dose: 100.0 mg/kg/injection, schedule: Q01DX009 (ip), vehicle: saline) is reported as 118 % of control and the T/C (dose: 100.0 mg/kg/injection, schedule: Q01DX010 (ip), vehicle: other) is reported as 110 % of control. For the same molecule, the T/C (dose: 100.0 mg/kg/injection, schedule: Q04DX003 (ip), vehicle: saline) was 110 % of control, the T/C (dose: 125.0 mg/kg/injection, schedule: Q01DX010 (ip), vehicle: other) was 120 % of control and the T/C (dose: 200.0 mg/kg/injection, schedule: Q01DX009 (ip), vehicle: saline) was 118 % of control. The T/C (dose: 200.0 mg/kg/injection, schedule: Q04DX003 (ip), vehicle: saline) was 115 % of control, the T/C (dose: 400.0 mg/kg/injection, schedule: Q01DX009 (ip), vehicle: saline) was 95 % of control and the T/C (dose: 400.0 mg/kg/injection, schedule: Q04DX003 (ip), vehicle: saline) was 120 % of control.

In the case of `CCN(CC)CCNC(=O)CCC(=O)O`, the T/C [8] is reported as 102 % of control, the T/C [9] is reported as 100 % of control and the T/C [10] is reported as 100 % of control.

For `O=CN(CCO)CCO`, the T/C [8] was 107 % of control, the T/C [9] was 94 % of control and the T/C [10] was 114 % of control.

`Cc1c2ccncc2c(CN(CCCl)CCCl)c2c3ccccc3n(C)c12` was tested, and the T/C (dose: 20.0 mg/kg/injection, schedule: Q01DX005 (ip), vehicle: saline) was 150 % of control and 160 % of control, the T/C [8] was 118 % of control and the T/C [9] was 182 % of control.

With `CC(C)(C)OC(=O)NC(CCC(=O)OCc1ccccc1)C(=O)ON1C(=O)CCC1=O` (stereo unspecified) the T/C [5] was 104 % of control, the T/C [6] was 114 % of control and the T/C [7] was 102 % of control.
